Consider 19 compounds from the RepoRT retention time repository.

SMILES strings stand for the structures. Where a name gives a salt, the structure may show the parent alone.

The data set can be described thus: RP, Waters ACQUITY UPLC HSS T3, 150 × 2.1 mm, 1.8 µm, 45 °C, 0.6 mL/min, estimated dead time 0.55 min; A: water + 0.1% formic acid, pH 3; B: acetonitrile + 0.1% formic acid, pH 3; gradient (min/%B) 0/1 0.1/1 10/55 10.15/65 10.30/75 10.45/85 10.60/95 10.70/100 11/100 11.55/100 11.65/1 11.70/1 11.80/1 11.90/1 12/1 12.10/1 12.15/1 12.65/1. The settings on record: stereoisomer not certain.
Turning to `O=C(O)CCC(=O)O` [Succinic acid], the LC retention time is 1.37 min.

Take `O=C(O)CC(Nc1ncnc2c1ncn2C1OC(CO)C(O)C1O)C(=O)O` (centres undefined) [Succinyladenosine]: the LC retention time was 2.31 min. The figure for `Nc1c(C(=O)NC(CC(=O)O)C(=O)O)ncn1C1OC(CO)C(O)C1O` (centres undefined) [Succinylaminoimidazole carboxamide riboside] is 1.65 min. With `OCC1OC(OC2(CO)OC(CO)C(O)C2O)C(O)C(O)C1O` (centres undefined) [Sucrose], the LC retention time was 0.68 min.

With `O=C(O)c1ccc(CO)o1` [Sumiki's acid], the LC retention time was 2.1 min.

As for `CC(CCC(=O)NCCS(=O)(=O)O)C1CCC2C3CCC4CC(OS(=O)(=O)O)CCC4(C)C3CCC12C` (centres undefined) [Taurolithocholic acid 3-sulfate], the LC retention time is 8.93 min.

For `Cn1c(=O)c2[nH]cnc2n(C)c1=O` [Theophylline], the LC retention time is 2.76 min.

In the case of `Cc1ccc(C(C)C)c(OS(=O)(=O)O)c1` [Thymol Sulfate], the LC retention time is 7.37 min.

In the case of `CC=C(C)C(=O)NCC(=O)O` [Tiglylglycine], the LC retention time is 2.92 min. The figure for `NC(Cc1ccc(O)cc1)C(=O)O` (centres undefined) [Tyrosine] is 1.38 min; for `O=c1[nH]c(=O)c2[nH]c(=O)[nH]c2[nH]1` [Uric acid] it is 1.12 min.

With `O=c1ccn(C2OC(CO)C(O)C2O)c(=O)[nH]1` (centres undefined) [Uridine], the LC retention time was 1.38 min. The figure for `COc1cc(C(O)C(=O)O)ccc1O` (centres undefined) [Vanillylmandelic acid] is 1.97 min; for `O=c1[nH]c(=O)c2[nH]cnc2[nH]1` [Xanthine] it is 1.31 min; for `O=c1[nH]c(=O)c2ncn(C3OC(CO)C(O)C3O)c2[nH]1` (centres undefined) [Xanthosine] it is 1.83 min. The figure for `O=C(O)/C=C/c1cccc(O)c1` [m-Coumaric acid] is 4.88 min; for `Cc1ccc(OC2OC(C(=O)O)C(O)C(O)C2O)cc1` (centres undefined) [p-Cresol glucuronide] it is 4.3 min; for `Cc1ccc(OS(=O)(=O)O)cc1` [p-Cresol sulfate] it is 4.2 min. Consider `O=C(O)C(O)c1ccc(O)cc1` (centres undefined) [p-Hydroxymandelic acid], for which the LC retention time was 1.57 min.
